According to patent US10058688B2 (Massachusetts Institute of Technology, priority 2012, dated 2018):
Where two headings read alike, the source gives them in different places.

Key:
[1] = tested on: OVCAR-3 ovarian tumor cell line; conditions: cited from earlier work
[2] = DrugBank, DB01229; cited from earlier work
[3] = tested on: SKOV3 luciferase-positive cells; experiment: Treatment efficacy study; format: in vivo, nu/nu mice
Text: The nu/nu mice were inoculated with tumor cells on Day 0 and treatment was started on Day 14. […] The devices were sterilized with ethylene oxide prior to implantation. All animal care guidelines as listed in the animal protocol were followed. The animals were imaged 2 times a week, similar to the tumor induction study. The animals in the toxicity study were sacrificed on day 56 and their organs (kidney, liver, spleen, intestines and bone) were removed immediately upon euthanasia to be fixed in 10% formalin overnight.

[4] = tested on: SKOV3 cells; experiment: In vitro cytotoxicity study; format: cell-based, human; conditions: 0.1 μg/mL over a period of 7 days, FIG. 5
Protocol: RPMI 1640 with 20% fetal bovine serum (FBS) was used for culturing A2780 and OVCAR3, and McCoy's 5a cell growth media with 10% FBS was used for SKOV3 propagation. The cells were seeded in 96-well plates at 10^4 cells/well. […] The percentage cell viability was calculated as a percentage of the untreated group at each time point.

[5] = tested on: SKOV3 cells; conditions: for 2 hours; Royer et al.; used as positive control; cited from earlier work
[6] = tested on: ovarian cancer; conditions: cited from earlier work

CC(=O)O[C@H]1C(=O)[C@@]2(C)[C@H]([C@H](OC(=O)c3ccccc3)[C@]3(O)C[C@H](OC(=O)[C@H](O)[C@@H](NC(=O)c4ccccc4)c4ccccc4)C(C)=C1C3(C)C)[C@]1(OC(C)=O)CO[C@@H]1C[C@@H]2O [paclitaxel]
median survival ([1]; 10 mg/kg dose): 60 days | median survival ([1]; 40 mg/kg): about 70 days | log P [2]: about 3.5

N.N.[Cl][Pt][Cl] [cisplatin]
tumor size ([3]; IP bolus injection (10 mg/kg), 1 dose per week): remained relatively small | tumor mass ([3]; device or IP bolus 5 mg/kg 1x/wk from Day 14, vs untreated, FIG. 8): significant tumor mass reduction | killing of tumor cells at 0.1 μg/mL [4]: too low to kill tumor cells | critical condition to kill ovarian tumor cells (concentration) [5]: 10 µg/mL | subjects who completed all cycles of therapy ([6]; IP therapy): 42% | overall survival ([6]; IP treatment, p=0.03): 65.6 months | subjects who completed all cycles of therapy ([6]; IV therapy): 83% | overall survival ([6]; IV treatment): 49.7 months
